Laboratory results: patent US20150216189A1, “NATAMYCIN-CYCLODEXTRIN COMPLEXES FOR USE IN FOODSTUFF, PROCESS FOR THEIR MANUFACTURE AND USE THEREOF” (priority 2011, published 2015)

What was measured:
yeasts and moulds = conditions: cited from earlier work
[1] = cited from earlier work
[2] = Text: Natamycin is sensitive to both high and low pH values and is degraded under such conditions. Despite this fact, the present invention utilizes such pH ranges. […] Typically the pH value is in the range of 10 to 12. In another embodiment the pH value of the aqueous solution in the complexation step is in the range of 6 or lower, preferably 1 to 4. Typically the pH value is lower than 4, such as in the range of 3 to 4. […] The tests in FIG. 1 and FIG. 2 were made through mixing natamycin (1%) and cyclodextrin (1%) with water (98%)
[3] = Antifungal activity on baked goods
Text: Studies were done wherein aqueous solutions of natamycin-cyclodextrin complexes have been applied onto shredded cheese or used in pharmaceutical preparations.

mould = test: Tortilla spray application shelf life study (mould growth); conditions: 21.7° C., no natamycin (variables 2, 3)
Experimental: A gamma-cyclodextrin-natamycin solution was produced employing a high pH system and the obtained solution was spray dried. Tortillas were treated with a standard natamycin (Natamax® SF) treatment, the spray-dried gamma-cyclodextrin-natamycin product, and traditional chemical preservatives to assess relative antifungal efficacy in baked goods.
Sample Variables in the Tortilla Treatments: • 1. Control—Deionized Water • 2. Control—Gamma-cyclodextrin (0.5% solution) • 3. Traditional Chemical Preservatives (fumarate, sorbate, propionate) • 4. Natamax® SF (target of ˜12 ppm natamycin on finished product) • 5. Gamma-cyclodextrin-natamycin powder (target of ˜12 ppm natamycin on finished product) • 6. Gamma-cyclodextrin-natamycin powder (target of ˜6 ppm natamycin on finished product)
For the spray application, each of the solutions were sprayed on 36 tortillas (about seven inches in diameter) using roughly the same spray volume. The tortillas were held on standard storage racks at 21.7° C. and monitored 0 to 30 days for mould growth.

In the case of `C[C@@H]1C/C=C/C=C/C=C/C=C/[C@H](O[C@@H]2O[C@H](C)[C@@H](O)[C@H](N)[C@@H]2O)C[C@@H]2O[C@](O)(C[C@@H](O)C[C@H]3O[C@@H]3/C=C/C(=O)O1)C[C@H](O)[C@H]2C(=O)O` [Natamycin], the “concentrations inhibiting most strains” value (yeasts and moulds) is listed as 1-40 ppm, the maximum water solubility [1] is listed as “around 40 ppm” and the “percentage of solubilized natamycin” value [2] is listed as “lower than 4%”.

With `OC[C@H]1O[C@@H]2O[C@H]3[C@H](O)[C@@H](O)[C@@H](O[C@H]4[C@H](O)[C@@H](O)[C@@H](O[C@H]5[C@H](O)[C@@H](O)[C@@H](O[C@H]6[C@H](O)[C@@H](O)[C@@H](O[C@H]7[C@H](O)[C@@H](O)[C@@H](O[C@H]8[C@H](O)[C@@H](O)[C@@H](O[C@H]9[C@H](O)[C@@H](O)[C@@H](O[C@H]1[C@H](O)[C@H]2O)O[C@@H]9CO)O[C@@H]8CO)O[C@@H]7CO)O[C@@H]6CO)O[C@@H]5CO)O[C@@H]4CO)O[C@@H]3CO` [Variable 2, Gamma-cyclodextrin] the “antifungal activity when applied on baked goods” value [3] was “no antifungal activity”, the “Number of moulded tortillas” value (mould; Day 0) was 0 and the “Number of moulded tortillas” value (mould; Day 5) was 20. For the same compound, the “Number of moulded tortillas” value (mould; Day 6) was 25, the “Number of moulded tortillas” value (mould; Day 7) was 26 and the “Number of moulded tortillas” value (mould; Day 8) was 28. The “Number of moulded tortillas” value (mould; Day 9) was 28, the “Number of moulded tortillas” value (mould; Day 12) was 30 and the “Number of moulded tortillas” value (mould; Day 13) was 30. The “Number of moulded tortillas” value (mould; Day 14) was 30, the “Number of moulded tortillas” value (mould; Day 15) was 30 and the “Number of moulded tortillas” value (mould; Day 16) was 30. For the same compound, the “Number of moulded tortillas” value (mould; Day 19) was 30, the “Number of moulded tortillas” value (mould; Day 20) was 30 and the “Number of moulded tortillas” value (mould; Day 21) was 30. The “Number of moulded tortillas” value (mould; Day 26) was 30, the “Number of moulded tortillas” value (mould; Day 27) was 30 and the “Number of moulded tortillas” value (mould; Day 28) was 30. For the same compound, the “Number of moulded tortillas” value (mould; Day 29) was 30 and the “Number of moulded tortillas” value (mould; Day 30) was 30.
